Measurements reported in ChEMBL document CHEMBL1135170, “4,4-Disubstituted cyclohexylamine NK(1) receptor antagonists II” (Bioorg Med Chem Lett, 2002).

Columns and labels:
[1] = tested on: Gerbillinae; test: Compound was evaluated for the inhibition of GR 73632-induced foot tapping in gerbils after intravenous administration at 24 hr; type: functional; settings: read-out: ID50 (the source's name)
[2] = tested on: Gerbillinae; test: Compound was evaluated for the inhibition of GR 73632-induced foot tapping in gerbils after intravenous administration at 2 hour; type: functional; settings: read-out: ID50 (the source's name)
[3] = tested on: Gerbillinae; test: Compound was evaluated for the inhibition of GR 73632-induced foot tapping in gerbils after intravenous administration at 0 (initial) hour; type: functional; settings: read-out: ID50 (the source's name)
[4] = tested on: Gerbillinae; test: Compound was evaluated for the inhibition of GR 73632-induced foot tapping in gerbils 2 hour after oral administration; type: functional; settings: read-out: ID50 (the source's name)
[5] = target: Substance-P receptor (Homo sapiens, UniProt P25103); test: Displacement of [125 I] -labelled substance P from the cloned Tachykinin receptor 1 expressed in CHO cells; type: cell-based
[6] = target: Voltage-gated inwardly rectifying potassium channel KCNH2 (Homo sapiens, UniProt Q12809); test: Compound was evaluated for the displacement of labelled MK-499 from the cloned channel expressed in HEK cells (Ikr channel); type: cell-based, HEK293
[7] = tested on: Gerbillinae; test: Compound was evaluated for the inhibition of GR 73632-induced foot tapping in gerbils after intravenous administration at 24 hr at a concentration of 3 mg/kg; type: functional
[8] = tested on: Gerbillinae; test: Compound was evaluated for the inhibition of GR 73632-induced foot tapping in gerbils after intravenous administration; type: functional; settings: read-out: ID50 (the source's name)
[9] = tested on: Gerbillinae; test: Compound was evaluated for the inhibition of GR 73632-induced foot tapping in gerbils after intravenous administration at 2 hour at a dose 3 mg/kg iv; type: functional
[10] = Bioavailability in rat; type: ADME, organism-based; settings: in vivo

Voltage-gated inwardly rectifying potassium channel KCNH2, sequence (Q12809 whole entry): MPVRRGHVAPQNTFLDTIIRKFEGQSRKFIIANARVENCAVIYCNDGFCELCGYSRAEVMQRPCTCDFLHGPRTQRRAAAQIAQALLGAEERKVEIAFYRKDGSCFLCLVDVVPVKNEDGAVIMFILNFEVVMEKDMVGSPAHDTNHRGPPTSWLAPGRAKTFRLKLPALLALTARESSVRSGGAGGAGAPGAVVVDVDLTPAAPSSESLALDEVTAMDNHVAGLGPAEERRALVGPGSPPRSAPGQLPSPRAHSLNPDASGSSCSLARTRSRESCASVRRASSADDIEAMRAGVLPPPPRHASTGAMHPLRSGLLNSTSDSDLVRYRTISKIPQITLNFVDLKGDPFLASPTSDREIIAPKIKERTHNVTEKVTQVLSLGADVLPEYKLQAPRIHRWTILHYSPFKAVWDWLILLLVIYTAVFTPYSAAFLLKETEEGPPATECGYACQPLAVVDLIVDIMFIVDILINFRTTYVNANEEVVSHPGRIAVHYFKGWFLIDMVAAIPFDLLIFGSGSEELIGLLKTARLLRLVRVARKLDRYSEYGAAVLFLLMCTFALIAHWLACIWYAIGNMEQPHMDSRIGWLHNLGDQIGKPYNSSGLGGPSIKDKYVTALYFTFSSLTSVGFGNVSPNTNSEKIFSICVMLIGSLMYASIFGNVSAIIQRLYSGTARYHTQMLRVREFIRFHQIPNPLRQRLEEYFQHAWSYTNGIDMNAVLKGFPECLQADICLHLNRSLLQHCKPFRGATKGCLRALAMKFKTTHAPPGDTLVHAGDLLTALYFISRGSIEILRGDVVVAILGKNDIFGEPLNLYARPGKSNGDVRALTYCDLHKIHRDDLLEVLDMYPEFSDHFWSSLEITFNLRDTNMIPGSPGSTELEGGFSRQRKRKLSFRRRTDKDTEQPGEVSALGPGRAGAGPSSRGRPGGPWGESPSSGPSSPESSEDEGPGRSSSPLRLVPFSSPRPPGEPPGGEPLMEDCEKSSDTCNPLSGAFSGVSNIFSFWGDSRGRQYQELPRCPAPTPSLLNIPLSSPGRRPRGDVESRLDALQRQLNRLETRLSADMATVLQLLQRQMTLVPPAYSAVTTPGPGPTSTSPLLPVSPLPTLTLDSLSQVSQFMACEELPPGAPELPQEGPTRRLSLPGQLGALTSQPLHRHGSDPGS
Substance-P receptor, sequence (P25103 whole entry): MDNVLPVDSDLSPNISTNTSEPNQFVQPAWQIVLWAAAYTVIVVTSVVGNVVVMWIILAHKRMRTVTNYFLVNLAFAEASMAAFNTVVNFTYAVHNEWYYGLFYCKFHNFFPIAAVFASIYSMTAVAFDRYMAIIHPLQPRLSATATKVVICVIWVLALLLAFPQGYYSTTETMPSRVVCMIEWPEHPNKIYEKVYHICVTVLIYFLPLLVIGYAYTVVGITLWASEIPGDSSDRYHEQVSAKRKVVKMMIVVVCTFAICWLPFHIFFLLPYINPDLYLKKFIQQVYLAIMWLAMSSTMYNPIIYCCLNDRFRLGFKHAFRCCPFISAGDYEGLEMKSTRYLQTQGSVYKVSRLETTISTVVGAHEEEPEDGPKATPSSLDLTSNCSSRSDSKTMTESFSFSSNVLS

Compound	IC50 [5] [nM]	Ki [6] [nM]	also measured
CC(C(=O)N[C@]1(c2ccccc2)CC[C@@H](N2CCC(O)CC2)CC1)c1cc(C(F)(F)F)cc(C(F)(F)F)c1 (some centres not stated)	0.85	1400	
CC(C(=O)NC1(c2ccccc2)CCC(N2CCC3(CC2)CCC(C)(C)O3)CC1)c1cc(C(F)(F)F)cc(C(F)(F)F)c1 (configuration not stated)	0.35	950	inhibition in vivo at 3 mg/kg [7]: 72%; ED50 [2]: 1 mg/kg
CC(C(=O)N[C@]1(c2ccccc2)CC[C@@H](N2CCN(C(C)C)CC2)CC1)c1cc(C(F)(F)F)cc(C(F)(F)F)c1 (some centres not stated)	0.39		
CC(C(=O)N[C@]1(c2ccccc2)CC[C@@H](N2CCC(c3ccc(F)cc3)CC2)CC1)c1cc(C(F)(F)F)cc(C(F)(F)F)c1 (some centres not stated)		43	ED50 [1]: 1.8 mg/kg; ED50 [2]: 0.6 mg/kg; ED50 [3]: 1.7 mg/kg
CC(C(=O)NC1(c2ccccc2)CCC(N2CCC(O)(Cc3ccccc3)CC2)CC1)c1cc(C(F)(F)F)cc(C(F)(F)F)c1 (configuration not stated)	0.33	260	
CC(C(=O)NC1(c2ccccc2)CCC(N2CCC3(CCCO3)CC2)CC1)c1cc(C(F)(F)F)cc(C(F)(F)F)c1 (configuration not stated)	0.22	730	ED50 [1]: 3.1 mg/kg; ED50 [2]: 0.7 mg/kg
CC1CCN([C@H]2CC[C@](NC(=O)C(C)c3cc(C(F)(F)F)cc(C(F)(F)F)c3)(c3ccccc3)CC2)CC1 (some centres not stated)	1.2	460	

Now from value to compound, other results behind:

IC50 [5] [nM]	Compound	Ki [6] [nM]	also measured
0.34	CC(C(=O)NC1(c2ccccc2)CCC(N2CCC3(CCOC3)CC2)CC1)c1cc(C(F)(F)F)cc(C(F)(F)F)c1 (configuration not stated)		ED50 [1]: 1.6 mg/kg; ED50 [2]: 1.1 mg/kg; ED50 [3]: 1.4 mg/kg; ED50 [4]: 2.2 mg/kg
2.4	CC(C(=O)N[C@]1(c2ccccc2)CC[C@H](N2CCCCC2)CC1)c1cc(C(F)(F)F)cc(C(F)(F)F)c1 (some centres not stated)		
2.1	CC(C(=O)NC1(c2ccccc2)CCC(N2CCC3(CCC(=O)O3)CC2)CC1)c1cc(C(F)(F)F)cc(C(F)(F)F)c1 (configuration not stated)	400	
1.6	CC(C(=O)N[C@]1(c2ccccc2)CC[C@@H](N2CCC(=O)CC2)CC1)c1cc(C(F)(F)F)cc(C(F)(F)F)c1 (some centres not stated)		
0.34	O=C(NCc1cc(C(F)(F)F)cc(C(F)(F)F)c1)[C@]1(c2ccccc2)CC[C@@H](N2CCC(c3ccc(F)cc3)CC2)CC1		ED50 [8]: 1.9 mg/kg; inhibition in vivo at 3 mg/kg [9]: 15%; bioavailability [10]: 70%
0.42	CC(C(=O)NC1(c2ccccc2)CCC(N2CCC3(CCOC3=O)CC2)CC1)c1cc(C(F)(F)F)cc(C(F)(F)F)c1 (configuration not stated)	490	
0.3	CC(C(=O)N[C@]1(c2ccccc2)CC[C@@H](N2CCC3(CC2)OCCO3)CC1)c1cc(C(F)(F)F)cc(C(F)(F)F)c1 (some centres not stated)		ED50 [1]: 5.4 mg/kg
22	CC(C(=O)N[C@]1(c2ccccc2)CC[C@H](N(C)C)CC1)c1cc(C(F)(F)F)cc(C(F)(F)F)c1 (some centres not stated)		
